Legend:
[1] = tested on: DNFB-induced ear inflammation mouse model; assay: DNFB-induced ear inflammation mouse model: cytokine concentrations in ear tissue; assay type: in vivo, mouse (Balb/c)
Experimental: In vivo T-cell mediated immune response was examined in a mouse model of CHS using the hapten dinitrofluorobenzene (DNFB) as the induction agent. […] On Days 0 and 1 (sensitization), 20 μL of 0.5% v/v DNFB in acetone:olive oil (4:1) was applied to each hindpaw of 8 week old male mice (Balb/c, Charles River Laboratories; 10 mice per group unless otherwise noted). On Day 5 (elicitation) 10 μL of 0.2% v/v DNFB in acetone: olive oil (4:1) was applied to the dorsal surface of the right ear of each animal; 10 μL of acetone: olive oil (4:1) was applied to the dorsal surface of the left ear as control. Treatments were administered by group as indicated in the table below; on days when DNFB was used, the QD and the morning dose of BID as appropriate were administered 30 minutes-1 hr. prior to DNFB application. […] Approximately 24 hours after elicitation (Day 6), a 7 mm tissue punch from the central portion of both ears was collected and wet weights measured. The primary functional assessment was the difference in wet weights of the right (DNFB) vs. left (vehicle) ears compared to the vehicle treatment (Vehicle1-S) as an indicator of inflammation (Table 17). Ear tissue punches were flash frozen, stored at −70° C. and analyzed for cytokines (see below).
Cytokine concentrations after DNFB induction and treatment were analyzed in the weighed and flash frozen tissues of the right (DNFB) and left (control) 7 mm ear punches. The ear tissues were stored at −70° C. until prepared for analysis as follows. Left or right ear tissues from the same treatment group were pooled and crushed with mortar and pestle under liquid nitrogen. Tissue representing 7-8 ear punches by weight was homogenized in Buffer A (50 mM HEPES pH 7.4, 100 mM NaCl) containing 1 tablet EDTA-free Protease Inhibitor (Thermo Fisher Scientific, Rockford, Ill.) per 10 mL, 1× Phosphatase Inhibitor Cocktail II (AG Scientific, San Diego, Calif.), and 1 mM PMSF (Sigma, St. Louis, Mo.). Homogenization was performed in Lysing Matrix D tubes (MP Biomedicals, Solon, Ohio), using the FastPrep-24 instrument (MP Biomedicals) at a speed setting of 6 for 4 cycles of 30 seconds, with cooling on ice in between cycles. The tubes were then centrifuged at 1,000×g for 10 min at 4° C. Supernatant was collected and briefly sonicated using the Microson probe sonicator at setting 3 (Misonix, Farmingdale, N.Y.) before centrifuging again at 10,000×g for 10 min at 4° C. The supernatant was ultracentrifuged at 100,000×g for 1 h at 4° C. in the Optima Max-E (Beckman Coulter, Indianapolis, Ind.) to separate soluble and membrane protein fractions. The soluble (supernatant) fraction was collected and protein concentrations determined using the Dc protein kit (Bio-Rad, Hercules, Calif.). Soluble ear proteins were analyzed in triplicate for cytokine response at a final protein concentration of 4 mg/ml using the Bio-Plex Pro Mouse Cytokine 23-Plex panel (Bio-Rad) as per manufacturer's protocols. Magnetic beads were read on the Bio-Plex MAGPIX multiplex reader instrument using the accompanying xPONENT 4.2 acquisition software (Bio-Rad Laboratories, Hercules, Calif.). Data were analyzed via the Bio-Plex Manager software v6.1 (Bio-Rad Laboratories). Response was calculated as a percentage of the cytokine concentrations measured in the right (DNFB) ears of vehicle 1 dosed (S regimen, i.e. dosed Day 0-5) mice (Table 18).

[2] = target: T1, BRPF1 (Homo sapiens, UniProt P55201); assay: Bromodomain binding assay: BRPF1
T1 construct: T7 phage strains displaying bromodomains were grown in parallel; made in house; host or cells: E. coli host derived from BL21, infected with T7 phage
T1 sequence (P55201 628-732 limits assumed, species assumed): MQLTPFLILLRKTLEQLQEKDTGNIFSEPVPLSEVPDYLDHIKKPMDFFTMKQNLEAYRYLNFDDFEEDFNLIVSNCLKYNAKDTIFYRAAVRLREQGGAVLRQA
Experimental: T7 phage strains displaying bromodomains were grown in parallel in 24-well blocks in an E. coli host derived from the BL21 strain. E. coli were grown to log-phase and infected with T7 phage from a frozen stock (multiplicity of infection=0.4) and incubated with shaking at 32° C. until lysis (90-150 minutes). The lysates were centrifuged (5,000×g) and filtered (0.2 μm) to remove cell debris. […] The liganded beads were blocked with excess biotin and washed with blocking buffer (SeaBlock (Pierce), 1% BSA, 0.05 Tween 20, 1 mM DTT) to remove unbound ligand and to reduce non-specific phage binding. […] Test compounds (T62 and 46) were prepared as 1000× stocks in 100% DMSO and subsequently diluted 1:10 in monoethylene glycol (MEG) to create stocks at 100× the screening concentration (resulting stock solution is 10% DMSO/90% MEG). The compounds were then diluted directly into the assays such that the final concentration of DMSO and MEG were 0.1% and 0.9%, respectively. All reactions were performed in polystyrene 96-well plates in a final volume of 0.135 ml. […] The bromodomain concentration in the eluates was measured by qPCR. Compounds were assayed for binding activity against a panel of 40 bromodomain-containing proteins.

Kd [2]: > 20 µM
Compound: CCOc1cc(C(=O)N2CCC(N3CCCC3)CC2)ccc1Nc1cc2c(cn1)N(C)C(=O)c1ccccc1N2C [Compound 46, 3-(2-Ethoxy-4-(4-(pyrrolidin-1-yl)piperidine-1-carbonyl)phenylamino)-5,11-dimethyl-5H-benzo[e]pyrido[3,4-b][1,4]diazepin-10(11H)-one]
G-CSF: Mean % Cytokine Concentration in DNFB Treated Right Ears versus Vehicle 1-Dosed (S) Mice ([1]; 25 mg/kg, regimen E): 58% | GM-CSF: Mean % Cytokine Concentration in DNFB Treated Right Ears versus Vehicle 1-Dosed (S) Mice ([1]; 25 mg/kg, regimen E): 29% | IFN-γ: Mean % Cytokine Concentration in DNFB Treated Right Ears versus Vehicle 1-Dosed (S) Mice ([1]; 25 mg/kg, regimen E): 51% | IL-1α: Mean % Cytokine Concentration in DNFB Treated Right Ears versus Vehicle 1-Dosed (S) Mice ([1]; 25 mg/kg, regimen E): 128% | IL-1β: Mean % Cytokine Concentration in DNFB Treated Right Ears versus Vehicle 1-Dosed (S) Mice ([1]; 25 mg/kg, regimen E): 57% | IL-3: Mean % Cytokine Concentration in DNFB Treated Right Ears versus Vehicle 1-Dosed (S) Mice ([1]; 25 mg/kg, regimen E): 75% | IL-5: Mean % Cytokine Concentration in DNFB Treated Right Ears versus Vehicle 1-Dosed (S) Mice ([1]; 25 mg/kg, regimen E): 63% | IL-6: Mean % Cytokine Concentration in DNFB Treated Right Ears versus Vehicle 1-Dosed (S) Mice ([1]; 25 mg/kg, regimen E): 53% | IL-12 (p40): Mean % Cytokine Concentration in DNFB Treated Right Ears versus Vehicle 1-Dosed (S) Mice ([1]; 25 mg/kg, regimen E): 81% | IL-13: Mean % Cytokine Concentration in DNFB Treated Right Ears versus Vehicle 1-Dosed (S) Mice ([1]; 25 mg/kg, regimen E): 79% | IL-17A: Mean % Cytokine Concentration in DNFB Treated Right Ears versus Vehicle 1-Dosed (S) Mice ([1]; 25 mg/kg, regimen E): 53% | KC: Mean % Cytokine Concentration in DNFB Treated Right Ears versus Vehicle 1-Dosed (S) Mice ([1]; 25 mg/kg, regimen E): 30% | MCP-1: Mean % Cytokine Concentration in DNFB Treated Right Ears versus Vehicle 1-Dosed (S) Mice ([1]; 25 mg/kg, regimen E): 37% | MIP-1α: Mean % Cytokine Concentration in DNFB Treated Right Ears versus Vehicle 1-Dosed (S) Mice ([1]; 25 mg/kg, regimen E): 62% | MIP-1β: Mean % Cytokine Concentration in DNFB Treated Right Ears versus Vehicle 1-Dosed (S) Mice ([1]; 25 mg/kg, regimen E): 44% | RANTES: Mean % Cytokine Concentration in DNFB Treated Right Ears versus Vehicle 1-Dosed (S) Mice ([1]; 25 mg/kg, regimen E): 55% | TNF-α: Mean % Cytokine Concentration in DNFB Treated Right Ears versus Vehicle 1-Dosed (S) Mice ([1]; 25 mg/kg, regimen E): 67% | G-CSF: Mean % Cytokine Concentration in DNFB Treated Right Ears versus Vehicle 1-Dosed (S) Mice ([1]; 60 mg/kg, regimen E): 36% | GM-CSF: Mean % Cytokine Concentration in DNFB Treated Right Ears versus Vehicle 1-Dosed (S) Mice ([1]; 60 mg/kg, regimen E): 0% | IFN-γ: Mean % Cytokine Concentration in DNFB Treated Right Ears versus Vehicle 1-Dosed (S) Mice ([1]; 60 mg/kg, regimen E): 25% | IL-1α: Mean % Cytokine Concentration in DNFB Treated Right Ears versus Vehicle 1-Dosed (S) Mice ([1]; 60 mg/kg, regimen E): 120% | IL-1β: Mean % Cytokine Concentration in DNFB Treated Right Ears versus Vehicle 1-Dosed (S) Mice ([1]; 60 mg/kg, regimen E): 32% | IL-3: Mean % Cytokine Concentration in DNFB Treated Right Ears versus Vehicle 1-Dosed (S) Mice ([1]; 60 mg/kg, regimen E): 53% | IL-5: Mean % Cytokine Concentration in DNFB Treated Right Ears versus Vehicle 1-Dosed (S) Mice ([1]; 60 mg/kg, regimen E): 23% | IL-6: Mean % Cytokine Concentration in DNFB Treated Right Ears versus Vehicle 1-Dosed (S) Mice ([1]; 60 mg/kg, regimen E): 31% | IL-12 (p40): Mean % Cytokine Concentration in DNFB Treated Right Ears versus Vehicle 1-Dosed (S) Mice ([1]; 60 mg/kg, regimen E): 64% | IL-13: Mean % Cytokine Concentration in DNFB Treated Right Ears versus Vehicle 1-Dosed (S) Mice ([1]; 60 mg/kg, regimen E): 61% | IL-17A: Mean % Cytokine Concentration in DNFB Treated Right Ears versus Vehicle 1-Dosed (S) Mice ([1]; 60 mg/kg, regimen E): 42% | KC: Mean % Cytokine Concentration in DNFB Treated Right Ears versus Vehicle 1-Dosed (S) Mice ([1]; 60 mg/kg, regimen E): 21% | MCP-1: Mean % Cytokine Concentration in DNFB Treated Right Ears versus Vehicle 1-Dosed (S) Mice ([1]; 60 mg/kg, regimen E): 31% | MIP-1α: Mean % Cytokine Concentration in DNFB Treated Right Ears versus Vehicle 1-Dosed (S) Mice ([1]; 60 mg/kg, regimen E): 42% | MIP-1β: Mean % Cytokine Concentration in DNFB Treated Right Ears versus Vehicle 1-Dosed (S) Mice ([1]; 60 mg/kg, regimen E): 31% | RANTES: Mean % Cytokine Concentration in DNFB Treated Right Ears versus Vehicle 1-Dosed (S) Mice ([1]; 60 mg/kg, regimen E): 37% | TNF-α: Mean % Cytokine Concentration in DNFB Treated Right Ears versus Vehicle 1-Dosed (S) Mice ([1]; 60 mg/kg, regimen E): 48% | G-CSF: Mean % Cytokine Concentration in DNFB Treated Right Ears versus Vehicle 1-Dosed (S) Mice ([1]; 60 mg/kg, regimen S): 27% | GM-CSF: Mean % Cytokine Concentration in DNFB Treated Right Ears versus Vehicle 1-Dosed (S) Mice ([1]; 60 mg/kg, regimen S): 0% | IFN-γ: Mean % Cytokine Concentration in DNFB Treated Right Ears versus Vehicle 1-Dosed (S) Mice ([1]; 60 mg/kg, regimen S): 22% | IL-1α: Mean % Cytokine Concentration in DNFB Treated Right Ears versus Vehicle 1-Dosed (S) Mice ([1]; 60 mg/kg, regimen S): 88% | IL-1β: Mean % Cytokine Concentration in DNFB Treated Right Ears versus Vehicle 1-Dosed (S) Mice ([1]; 60 mg/kg, regimen S): 23% | IL-3: Mean % Cytokine Concentration in DNFB Treated Right Ears versus Vehicle 1-Dosed (S) Mice ([1]; 60 mg/kg, regimen S): 45% | IL-5: Mean % Cytokine Concentration in DNFB Treated Right Ears versus Vehicle 1-Dosed (S) Mice ([1]; 60 mg/kg, regimen S): 5% | IL-6: Mean % Cytokine Concentration in DNFB Treated Right Ears versus Vehicle 1-Dosed (S) Mice ([1]; 60 mg/kg, regimen S): 20% | IL-12 (p40): Mean % Cytokine Concentration in DNFB Treated Right Ears versus Vehicle 1-Dosed (S) Mice ([1]; 60 mg/kg, regimen S): 49% | IL-13: Mean % Cytokine Concentration in DNFB Treated Right Ears versus Vehicle 1-Dosed (S) Mice ([1]; 60 mg/kg, regimen S): 47% | IL-17A: Mean % Cytokine Concentration in DNFB Treated Right Ears versus Vehicle 1-Dosed (S) Mice ([1]; 60 mg/kg, regimen S): 38% | KC: Mean % Cytokine Concentration in DNFB Treated Right Ears versus Vehicle 1-Dosed (S) Mice ([1]; 60 mg/kg, regimen S): 19% | MCP-1: Mean % Cytokine Concentration in DNFB Treated Right Ears versus Vehicle 1-Dosed (S) Mice ([1]; 60 mg/kg, regimen S): 27% | MIP-1α: Mean % Cytokine Concentration in DNFB Treated Right Ears versus Vehicle 1-Dosed (S) Mice ([1]; 60 mg/kg, regimen S): 29% | MIP-1β: Mean % Cytokine Concentration in DNFB Treated Right Ears versus Vehicle 1-Dosed (S) Mice ([1]; 60 mg/kg, regimen S): 24% | RANTES: Mean % Cytokine Concentration in DNFB Treated Right Ears versus Vehicle 1-Dosed (S) Mice ([1]; 60 mg/kg, regimen S): 27% | TNF-α: Mean % Cytokine Concentration in DNFB Treated Right Ears versus Vehicle 1-Dosed (S) Mice ([1]; 60 mg/kg, regimen S): 39%

Reference: US20170008888A1 (KYORIN PHARMACEUTICAL CO., LTD., priority 2014, published 2017)
